Results: article PMC8803746, “Two experts and a newbie: [^18F]PARPi vs [^18F]FTT vs [^18F]FPyPARP—a comparison of PARP imaging agents” (European Journal of Nuclear Medicine and Molecular Imaging, 2021)
Where “and” joins values, the source holds several entries; their conditions need not be identical. Equal values may be shown once. Read-outs that look alike come from different tables or passages of the source.

Columns and labels:
[1] = parameters: method as in PMID 30389822; conditions: cited from earlier work
[2] = parameters: method as in PMID 30389822; conditions: cited from earlier work; remark: listed apart in the source
HCC1937 xenografts = test: PET/MR imaging and ex vivo biodistribution in xenograft-bearing mice; parameters: species or system NOD.CB17-Prkdc^scid/J mice; conditions: for Xenograft uptake (TACs from dynamic PET): 1-h dynamic PET; for tumor-to-blood ratio (TBR) / tumor-to-muscle ratio (TMR): ex vivo biodistribution; for tumor-to-blood ratio (TBR) / tumor-to-muscle ratio (TMR) / liver-to-kidney ratio (LKR): mean value; for Renal clearance / bladder uptake in PET images: i.v., dynamic PET, minutes 50-60
Protocol: (§1) All animal experiments were performed according to the German animal welfare act and approved by the local authorities (Regierungspräsidium Tübingen, R3/18). Animals were housed in individually ventilated cages (IVCs, 5 mice per cage) with bedding and enrichment, and food and water was provided ad libitum. Animals were kept under isoflurane anesthetic (1.5% in pure oxygen, 1.5 l/min) during the experiments. In 1:1 ice-cold Matrigel (Thermo Scientific)/PBS, 1 × 10^7 cells were injected subcutaneously in the right shoulder area of 7-week-old female NOD.CB17-Prkdc^scid/J mice (n = 10 per tracer). After the xenografts reached a suitable size (302 ± 152 mm^3), mice were injected with 12.45 ± 0.87 MBq, 12.68 ± 0.39 MBq, and 12.94 ± 0.45 MBq, respectively, of [^18F]PARPi, [^18F]FPyPARP, and [^18F]FTT and subjected to 1-h dynamic (n = 7 per tracer) or 10-min static (n = 3 per tracer, 1-h resting uptake) PET imaging (Inveon D-PET, Siemens, Knoxville, TN, USA) with subsequent magnetic resonance (MR) anatomical scans using a 7-T Biospec 70/30 USR (Clinscan, Bruker Biospin MRI GmbH) and a T2-weighted spin echo sequence. Five mice of each dynamically acquired group underwent a second, 10-min static PET scan 2-h post-injection (p.i.). Mice were sacrificed by cervical dislocation, the collected organs were weighed, and the tissue uptake was determined by gamma-counting (WIZARD2). Liver and kidney tissue was frozen in Tissue-Tek (Labtech, East Sussex, Britain) and 20-µm slices were prepared for autoradiography. A storage phosphor screen (Molecular Dynamics, Caesarea, Israel) was exposed to the sections for 18 h and scanned at a resolution of 100 µm/px with a STORM phosphor imager (Molecular Dynamics). PET image reconstruction and correlation with MR images was performed with Inveon Acquisition Workplace and Inveon Research Workplace, respectively, using a user-defined dynamic framing and an ordered subset expectation maximization (OSEM3D) algorithm. Regions of interest (ROIs) were drawn according to the acquired MR images and co-registered with the PET data to obtain time-activity curves (TACs).
Statistical analyses are represented as mean values ± standard deviation. Analyses were performed using GraphPad Prism 9 and non-parametric t tests (comparison of two groups) and one-way ANOVA (comparison of more than two groups). Blood half-life was calculated using a two-phase decay fit in GraphPad Prism 8. p values < 0.05 were considered statistically significant according to the software (*p < 0.05, **p < 0.01, ***p < 0.001, ****p < 0.0001).

[3] = Blood half-life, two-phase decay fit; format: in vivo, NOD.CB17-Prkdc^scid/J mice; conditions: calculated with two-phase decay fit
Protocol: as §1, with “PET image reconstruction and correlation with MR images was performed with Inveon Acquisition Workplace and Inveon Research Workplace, respectively, using a user-defined dynamic framing and an ordered subset expectation maximization (OSEM3D) algorithm. Regions of interest (ROIs) were drawn according to the acquired MR images and co-registered with the PET data to obtain time-activity curves (TACs).” left out
Statistical analyses are represented as mean values ± standard deviation. […] Blood half-life was calculated using a two-phase decay fit in GraphPad Prism 8. p values < 0.05 were considered statistically significant according to the software (*p < 0.05, **p < 0.01, ***p < 0.001, ****p < 0.0001).

HCC1937 cells = test: In vitro radiotracer uptake, acid wash; format: cell-based, human; conditions: glycine-HCl in PBS 50 mM pH 2.8 vs medium
Protocol: For the acid wash, cells were distributed in 96-well filter plates as described before and incubated with the radiotracer solution for 30 min at 37 °C. After an initial wash with 100 µl medium, cells were either washed twice (1: 100 µl, 2: 200 µl) with medium or with glycine–HCl in PBS (50 mM, pH 2.8) followed by a final wash with 200 µl medium and measured in a gamma counter.

[4] = Experimental logP and logD determination (1-octanol/water or PBS, gamma counter); format: physicochemical; conditions: experimentally determined; for logD: 1-octanol/PBS; for logP: 1-octanol/water
Protocol: One microliter radiotracer solution (0.4 MBq) was added to a mixture of 500 µl water or PBS and 500 µl 1-octanol. After thorough shaking, the suspension was shortly centrifuged for phase separation, samples were drawn from each phase, and radioactivity concentration was measured in a gamma counter (WIZARD2, PerkinElmer, Waltham, MA, USA).

[5] = test system: ABCB1 (encoding MDR1 P-glycoprotein); parameters: method as in PMID 24700236; conditions: cited from earlier work
[6] = parameters: method as in Lynparza monograph, AstraZeneca; conditions: reported value; ref Lynparza monograph, AstraZeneca; cited from earlier work
[7] = parameters: method as in PMID 32245901; conditions: cited from earlier work
[8] = Serum stability analysis in mouse serum; format: in vitro ADME; conditions: C57BL/6 J mouse serum, 37 °C, over 240 min, HPLC
Protocol: (§2) Serum stability was assessed by mixing [^18F]FPyPARP solution 1:1 with C57BL/6 J mouse or human (blood type AB + , Sigma-Aldrich, Steinheim, Germany) serum. After 0-, 30-, 60-, 120-, and 240-min incubation at 37 °C, samples were drawn and the proteins were precipitated by adding ice-cold MeCN to a final concentration of 50%. The supernatant after centrifugation (12,100 × g, 90 s) was analyzed by HPLC as described for radiotracer quality control.

[9] = Serum stability analysis in human serum; format: in vitro ADME; conditions: 37 °C, over 240 min, HPLC
Protocol: as §2

Compound | Blood half-life [3] [min] | logD [4] | logP [4] | liver-to-kidney ratio (LKR) (HCC1937 xenografts; 2.5 h p.i.) | Xenograft uptake (TACs from dynamic PET) (HCC1937 xenografts) | tumor-to-blood ratio (TBR) (HCC1937 xenografts; 2.5 h p.i.) | tumor-to-muscle ratio (TMR) (HCC1937 xenografts; 2.5 h p.i.) | Renal clearance / bladder uptake in PET images (HCC1937 xenografts) | Radiotracer uptake after acidic wash compared to medium wash (HCC1937 cells) | tumor-to-muscle ratio (TMR) (HCC1937 xenografts; 1.5 h p.i.) | also measured
O=C(c1cc(Cc2n[nH]c(=O)c3ccccc23)ccc1[18F])N1CCN(C(=O)C2CC2)CC1 [[^18F]olaparib] | – | – | – | – | – | – | – | – | – | – | calculated logP [1]: 2.02; Clearance route [2]: only shows hepatobiliary clearance
O=C(c1cc(Cc2n[nH]c(=O)c3ccccc23)ccc1F)N1CCN(C(=O)C2CC2)CC1 [olaparib] | – | – | – | – | – | – | – | – | – | – | Efflux transporter substrate [5]: efflux transporter of olaparib; logD [6]: 1.49
O=C(c1ccc([18F])cc1)N1CCN(C(=O)c2cc(Cc3n[nH]c(=O)c4ccccc34)ccc2F)CC1 [[^18F]PARPi] | 3 ± 0.7 | 2.09 | 2.09 | 1.37 | within the same range | 3.41 ± 0.83 | – | some of the animals showed renal excretion | significantly higher uptake | 5.3 | Time of first appearance of a radiometabolite ([7]; first-in-human clinical studies): 25 min; Renal clearance ([7]; in humans): 30%

The next lines start with results.

Blood half-life [3] [min] | logD [4] | logP [4] | liver-to-kidney ratio (LKR) (HCC1937 xenografts; 2.5 h p.i.) | Compound | Xenograft uptake (TACs from dynamic PET) (HCC1937 xenografts) | tumor-to-blood ratio (TBR) (HCC1937 xenografts; 2.5 h p.i.) | tumor-to-muscle ratio (TMR) (HCC1937 xenografts; 2.5 h p.i.) | Renal clearance / bladder uptake in PET images (HCC1937 xenografts) | Radiotracer uptake after acidic wash compared to medium wash (HCC1937 cells) | tumor-to-muscle ratio (TMR) (HCC1937 xenografts; 1.5 h p.i.) | also measured
2.1 ± 0.5 | 1.94 | 1.1 | – | O=C1NCCn2c(-c3ccc(OCC[18F])cc3)nc3cccc1c32 [[^18F]FTT] | higher overall xenograft uptake | 2.46 ± 0.35 and 2.46 | 3.42 | no noticeable renal clearance | No difference | – | tumor-to-liver ratio (TLR) (HCC1937 xenografts; 1.5 h and 2.5 h p.i.): significantly higher at both time points
2.6 ± 1.4 | 1.16 | 1.16 | 0.60 | O=C(c1ccc(F)nc1)N1CCN(C(=O)c2cc(Cc3n[nH]c(=O)c4ccccc34)ccc2F)CC1 [[^18F]FPyPARP, 4-(4-Fluoro-3-(4-(6-fluoronicotinoyl)piperazine-1-carbonyl)benzyl)phthalazine-1(2H)-one] | within the same range | 3.99 ± 0.99 and 3.99 | 2.46 | all animals exhibiting strong radioactive signal in the bladder | No difference | 1.99 | Change of liver-to-kidney ratio between the 1.5 and 2.5 h time points (HCC1937 xenografts; 1.5 h vs 2.5 h p.i.): decreased; Liver uptake (TACs) (HCC1937 xenografts; early time points, in direct comparison to [^18F]PARPi): lower uptake values; Serum stability [8]: no significant radiometabolites and good radiotracer stability over 240 min; Serum stability [9]: no significant radiometabolites and good radiotracer stability over 240 min
